For experiment [1], the system named is human neutrophils (live PMN's). Briefly: Neutrophil (PMN + 0.5 nM PMA)-mediated R22-ECM hydrolysis (3H-proline cpm released in 6 h). Format: cell-based. The note with it: for ECM HYDROLYSIS (% CONTROL) / activity at 5 µM / activity at 25 µM / activity at 50 µM: control = hydrolysis in absence of any inhibitor normalized to 100%, 6 h at 37° C.; for inhibition of ECM degradation, in words: 5-50 μM, Table 1 and FIG. 1; for activity at 5 µM / activity at 25 µM / activity at 50 µM: Homo sapiens, Neutrophil. An excerpt:
The activity of various tetracyclines was investigated employing an in vitro assay of inflammatory tissue injury in which human neutrophils are allowed to degrade a biosynthetically prepared complete interstitial stromal extracellular matrix (ECM). A neutrophil is one type of leukocyte (polymorphonuclear leukocyte). […] E. J. Roemer, K. J. Stanton, and S. R. Simon, "In Vitro Assay Systems for Inflammatory Cell-Mediated Damage to Interstitial Extracellular Matrix," In Vitro Toxicol. 7,75-81 (1994); E. J. Roemer, K. J. Stanton, and S. R. Simon, "In Vitro Assay Systems for Cell Interactions With Interstitial Extracellular Matrix," In Vitro Toxicol. 7,209-224 (1994).
The serine proteinase inhibiting activity of tetracyclines was tested using an in vitro assay of inflammatory tissue injury in which human neutrophils (live PMN's) were allowed to degrade a biosynthetically prepared complete interstitial stromal extracellular matrix (ECM) produced by cultured R22 rat heart smooth muscle cells as described by Roemer et al. (E. J. Roemer, K. J. Stanton, and S. R. Simon, "In Vitro Assay Systems for Inflammatory Cell-Mediated Damage to Interstitial Extracellular Matrix," In Vitro Toxicol. 7,75-81 (1994); E. J. Roemer, K. J. Stanton, and S. R. Simon, "In Vitro Assay Systems for Cell Interactions With Interstitial Extracellular Matrix," In Vitro Toxicol. 7,209-224 (1994)). Ten different chemically modified tetracyclines (CMTs) designated CMT-1 through CMT-10 and doxycycline, at concentrations ranging from 5 μM to 50 μM, were added to the ECM simultaneously with a suspension of 2×10^6 viable human PMN/mL in Hank's balanced salts solution (HBSS). In these studies, the ECM was metabolically radiolabeled with ^3 H-proline, and counts solubilized after six hours of incubation were measured and compared with counts released after incubation with PMN alone.

Experiment [2] addresses T1, human leukocyte elastase (HLE) (Homo sapiens, UniProt P08246).
T1 sequence (P08246 30-267): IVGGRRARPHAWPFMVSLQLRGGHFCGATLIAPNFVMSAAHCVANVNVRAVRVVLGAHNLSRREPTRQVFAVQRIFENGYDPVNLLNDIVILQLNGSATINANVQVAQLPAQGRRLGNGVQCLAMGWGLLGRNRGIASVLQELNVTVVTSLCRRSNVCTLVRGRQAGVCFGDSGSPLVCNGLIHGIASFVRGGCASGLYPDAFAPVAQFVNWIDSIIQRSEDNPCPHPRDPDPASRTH
Briefly: HLE amidolytic activity (methoxysuccinyl-Ala-Ala-Pro-Val-p-nitroanilide). Format: biochemical. An excerpt:
This oligopeptide is generally assumed to occupy the first five subsites of the extended substrate binding domain in HLE.
To avoid time-dependent adsorption of HLE onto the wells of the 96-well microplates used in the amidolytic assays, the plates were pretreated with a solution of 0.2% bovine serum albumin. […] The […] concentration at which the Dixon plots intersect is a measure of Ki for the inhibitor.
The inhibitory activity of doxycycline towards amidolysis of methoxysuccinyl-Ala-Ala-Pro-Val-p-nitroanilide by HLE was also determined in the presence of 2% DMSO and no detergent, as described above for CMT-3.

In experiment [3] the target is T2, leukocyte elastase (Homo sapiens, UniProt P08246).
T2 sequence (P08246 30-247): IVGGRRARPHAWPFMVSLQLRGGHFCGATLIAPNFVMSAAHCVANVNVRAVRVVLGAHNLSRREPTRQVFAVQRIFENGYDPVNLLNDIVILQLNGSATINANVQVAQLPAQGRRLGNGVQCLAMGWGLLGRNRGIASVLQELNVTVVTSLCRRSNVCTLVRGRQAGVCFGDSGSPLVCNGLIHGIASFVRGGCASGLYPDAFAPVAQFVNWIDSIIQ
Briefly: Leukocyte elastase inhibitory activity. Format: biochemical.

Experiment [4] has as its target MMP-8. The note with it: in vitro; read-out: K1, inhibition of MMP-8 activity in vitro; cited from earlier work.
Experiment [5] has as its system human neutrophils (live PMN's). The note with it: cited from earlier work.

Results on 16 compounds are retold here after US5773430A, “Serine proteinase inhibitory activity by hydrophobic tetracycline” (Research Foundation of State University of New York, priority 1997, dated 1998).

Entries after “also recorded” stand apart in the source; their conditions may differ. Read-outs that look alike come from different tables or passages of the source.

On to `CC1(O)c2c(Cl)ccc(O)c2C(=O)C2=C(O)C3(O)C(=O)C(C(N)=O)=C(O)CC3CC21` (centres unmarked) [CMT-4, 7-chloro-4-de(dimethylamino)tetracycline], for which the “ECM HYDROLYSIS (% CONTROL)” value was found to be 90 % CONTROL in experiment [1] (5 μm), 98 % CONTROL in experiment [1] (25 μm) and 130 % CONTROL in experiment [1] (50 μm).

With `CC1(O)c2cccc(O)c2C(=O)C2=C(O)C3C(=O)C(C(N)=O)=C(O)CC3CC21` (stereo not drawn) [CMT-7, 4-de(dimethylamino)-12α-deoxytetracycline], the “ECM HYDROLYSIS (% CONTROL)” value is listed as 97 % CONTROL in experiment [1] (5 μm), 84 % CONTROL in experiment [1] (25 μm) and 100 % CONTROL in experiment [1] (50 μm).

As for `C[C@H]1c2cccc(O)c2C(O)=C2C(=O)[C@]3(O)C(O)=C(C(N)=O)C(=O)C[C@@H]3[C@@H](O)[C@@H]21` [CMT-8, 6-deoxy-5α-hydroxy-4-de(dimethylamino)tetracycline], the “inhibition of ECM degradation, in words” value in experiment [1] is “showed some inhibition of ECM degradation”. The “ECM HYDROLYSIS (% CONTROL)” value in experiment [1] (5 μm) is listed as 96 % CONTROL; in experiment [1] (25 μm), 82 % CONTROL; in experiment [1] (50 μm), 57 % CONTROL.

For the compound `CN(C)C1C(=O)C(C(N)=O)=C(O)C2(O)C(=O)C3=C(O)c4c(O)ccc(Cl)c4C(C)(O)C3CC12` (stereo not drawn) [epi-chlorotetracycline], the “potency as inhibitors of the amidolytic activity of HLE, in words” value (“potency as inhibitors” for short) in experiment [2] is on record as “comparably low or no potency”.

On to `CC1(O)c2cccc(O)c2C(=O)C2=C(O)C3(O)C(=O)C(C(N)=O)=C(O)CC3CC21` (centres unmarked) [CMT-1, 4-de(dimethylamino)tetracycline], for which the “ECM HYDROLYSIS (% CONTROL)” value in experiment [1] (5 μm) was 93 % CONTROL; in experiment [1] (25 μm), 95 % CONTROL; in experiment [1] (50 μm), 90 % CONTROL.

Consider `C[C@H]1c2cccc(O)c2C(=O)C2=C(O)[C@]3(O)C(=O)C(C(N)=O)=C(O)[C@@H](N(C)C)[C@@H]3[C@@H](O)[C@@H]21` [doxycycline], for which the “leukocyte elastase inhibitory activity, in words” value in experiment [3] is recorded as “do not exhibit substantial leukocyte elastase inhibitory activity”. For the same compound, the “potency as inhibitors” value in experiment [2] was “only very weak inhibition; also recorded: only a very weak inhibitor of HLE”. Also, the Ki was approximately 300 µM in experiment [2] (2% DMSO, no detergent, 100 μM through 300 μM substrate, Dixon plot, read-out: Ki for inhibition of amidolytic activity of HLE); more than 300 µM in experiment [2] (Dixon and Cornish-Bowden plots, FIGS. 3-5, read-out: apparent K1, inhibition of amidolysis); 25 to 50 µM in experiment [4]. For the same compound, in experiment [1] (5 μm), the activity at 5 µM worked out at 98%. Further, the activity at 25 µM in experiment [1] (25 μm) is 92%. Moreover, in experiment [1] (50 μm), the activity at 50 µM came out at 84%.

`CN(C)c1ccc(O)c2c1C[C@H]1C[C@H]3[C@H](N(C)C)C(O)=C(C(N)=O)C(=O)[C@@]3(O)C(O)=C1C2=O` [minocycline]: the “leukocyte elastase inhibitory activity, in words” value in experiment [3] is on record as “do not exhibit substantial leukocyte elastase inhibitory activity”.

Consider `Cc1c2c(c(O)c3c(O)cccc13)C(=O)C1C(O)=C(C(N)=O)C(=O)CC1C2` (stereo not drawn) [CMT-9, 4-de(dimethylamino)-12α-deoxyanhydrotetracycline], for which the activity at 5 µM in experiment [1] (5 μm) turned out to be 88%. The activity at 25 µM in experiment [1] (25 μm) is 215%. For the same compound, the activity at 50 µM in experiment [1] (50 μm) worked out at 190%.

For `Cc1c2c(c(O)c3c(O)ccc(Cl)c13)C(=O)C1(O)C(O)=C(C(N)=O)C(=O)C(N(C)C)C1C2` (centres unmarked) [anhydrochlorotetracycline], the “potency as inhibitors” value in experiment [2] was “comparably low or no potency”.

Take tetracycline pyrazole [CMT-5]: the “potency as inhibitors” value in experiment [2] was “comparably low or no potency”. The “ECM HYDROLYSIS (% CONTROL)” value in experiment [1] (5 μm) worked out at 78 % CONTROL; in experiment [1] (25 μm), 112 % CONTROL; in experiment [1] (50 μm) it was 102 % CONTROL.

In the case of `CC1(O)c2cccc(O)c2C(=O)C2=C(O)C3(O)C(=O)C(C(N)=O)=C(O)C(O)C3CC21` (centres unmarked) [CMT-6, 4-hydroxy-4-de(dimethylamino)tetracycline], the entries for the “ECM HYDROLYSIS (% CONTROL)” value in experiment [1] (5 μm), in experiment [1] (25 μm) and in experiment [1] (50 μm) were 109 % CONTROL, 101 % CONTROL and 97 % CONTROL, respectively.

`CN(C)c1ccc(O)c2c1C[C@H]1C[C@H]3CC(O)=C(C(N)=O)C(=O)[C@@]3(O)C(O)=C1C2=O` [CMT-10, 4-de(dimethylamino)minocycline]: in experiment [1], the “inhibition of ECM degradation, in words” value is “showed some inhibition of ECM degradation”. The activity at 5 µM in experiment [1] (5 μm) was 101%. Moreover, in experiment [1] (25 μm), the activity at 25 µM is 85%. Also, in experiment [1] (50 μm), the activity at 50 µM came to 80%.

For the compound “αhd 1-PI: the major endogenous inhibitor of human leukocyte elastase”, the “neutrophil-mediated degradation of ECM, inhibition in words” value in experiment [5] is given as “virtually completely inhibited”.

As to `CN(C)[C@@H]1C(O)=C(C(N)=O)C(=O)[C@@]2(O)C(O)=C3C(=O)c4c(O)ccc(Cl)c4[C@@](C)(O)[C@H]3C[C@@H]12` [chlorotetracycline], the “potency as inhibitors” value in experiment [2] was “comparably low or no potency”.

For the compound `CN(C)C1C(=O)C(C(N)=O)=C(O)C2(O)C(=O)C3=C(O)c4c(O)cccc4C(C)(O)C3C(O)C12` (centres unmarked) [oxytetracycline], in experiment [2], the “potency as inhibitors” value is listed as “comparably low or no potency”.

Take `CN(C)C1C(=O)C(C#N)=C(O)C2(O)C(=O)C3=C(O)c4c(O)cccc4C(C)(O)C3CC12` (centres unmarked) [CMT-2, tetracyclinonitrile]: in experiment [1] (5 μm), the activity at 5 µM was 91%. For the same compound, the activity at 25 µM in experiment [1] (25 μm) was determined as 95%. The activity at 50 µM in experiment [1] (50 μm) came to 100%.
